From patent US8802082B2, “Rhodamine derivatives for photodynamic diagnosis and treatment” (Université de Montreal, priority 1999, dated 2014)

How the values were obtained:
[1] = test system: K-562 cell line; assay: In vitro phototoxicity, cell viability in the K-562 cell line procedure (argon ion laser 514.5 nm); type: cell-based
Description: To ascertain the photochemotherapeutic potential of 4, 5-dibromorhodamine 110 n-butyl ester hydrobromide (DBBE), in vitro phototoxicity was evaluated in the K-562 cell line procedure described. The cells were incubated with increasing concentrations of DBBE and the cell viability was measured at different time points following photodynamic therapy.
The photo toxicity in vitro of rhodamine B n-butyl ester (RBBE) was evaluated in the K-562 cell line procedure, in order to assess its photochemotherapeutic potential. Comparison was made to the induced phototoxicity of rhodamine 123 (RH123) and of rhodamine nB-butyl ester hydrochloride. Cell viability was evaluated 2 and 20 hours after photodynamic therapy. […] Rhodamine 123 has no effect on cell viability, even at exposures of 5 J/cm^2. Phototoxicity of 4,5-dibromorhodamine 110 n-butyl ester hydrobromide and rhodamine B n-butyl ester hydrochloride were only assessed against the cell line K562. However, we anticipate that their activity will be similar against T cells.

[2] = test system: normal mouse long term culture of bone marrow and hematopoietic colonies; assay: Phototoxicity against hematopoietic progenitor cell cultures (long term culture of bone marrow, semi-solid colony assays); type: cell-based
Source text: However, as reported for rhodamine 123, the LTC (Long Term Culture) establishment is more sensitive to the dyes but the number of viable committed precursor and stem cells remains unaffected. […] This is in agreement with results obtained previously in other laboratories using rhodamine 123.

For `Br.CCCCOC(=O)c1ccccc1-c1c2ccc(=N)c(Br)c-2oc2c(Br)c(N)ccc12` [DBBE, 4,5-dibromorhodamine 110 (2-(4,5-dibromo-6-amino-3-imino-3H-xanthen-9-yl)-benzoic acid) n-butyl ester hydrobromide], the “cell viability after photodynamic therapy” value ([1]; 10 μg/ml, 0.5 J/cm^2 at 514.5 nm, less than 24 hours after irradiation) was “completely suppress” and the “establishment of normal mouse long term culture of bone marrow and formation of hematopoietic colonies in semi-solid assays after photodynamic therapy” value (“establishment” below) [2] was “minimally impaired”.
With `CCCCOC(=O)c1ccccc1-c1c2ccc(=NCC)cc-2oc2cc(N(CC)CC)ccc12.Cl` [RBBE, Rhodamine B n-butyl ester (2-(6-diethyl amino-3-ethyl imino-3H-xanthen-9-yl)-benzoic acid) n-butyl diester hydrochloride] the “cell viability of K562 cells after photodynamic therapy” value ([1]; 10 µg/ml, 5 J/cm^2 argon ion laser 514.5 nm, less than 20 hours after irradiation) was “significantly suppress” and the “establishment” value [2] was “minimally impaired”.
For `COC(=O)c1ccccc1-c1c2ccc(=N)cc-2oc2cc(N)ccc12.Cl` [Rhodamine 123, Rhodamine 123 (2-(6-amino-3-imino-3H-xanthen-9-yl)benzoic acid methyl ester) hydrochloride, reference compound], the “effect on cell viability” value ([1]; even at exposures of 5 J/cm^2) was “no effect” and the “establishment” value [2] was “minimally impaired”.
